The values below come from publication PMC3266270, “Biochemical Discrimination between Selenium and Sulfur 1: A Single Residue Provides Selenium Specificity to Human Selenocysteine Lyase” (PLoS ONE, 2012).

Data set [1] addresses T1, hSCL (human selenocysteine lyase) (Homo sapiens, UniProt Q96I15).
T1 construct: gene SCLY; residues 8-445, N-terminal His6-TEV tag cleaved before assay and crystallization; E. coli BL21(DE3); homodimer
T1 sequence (Q96I15 8-445): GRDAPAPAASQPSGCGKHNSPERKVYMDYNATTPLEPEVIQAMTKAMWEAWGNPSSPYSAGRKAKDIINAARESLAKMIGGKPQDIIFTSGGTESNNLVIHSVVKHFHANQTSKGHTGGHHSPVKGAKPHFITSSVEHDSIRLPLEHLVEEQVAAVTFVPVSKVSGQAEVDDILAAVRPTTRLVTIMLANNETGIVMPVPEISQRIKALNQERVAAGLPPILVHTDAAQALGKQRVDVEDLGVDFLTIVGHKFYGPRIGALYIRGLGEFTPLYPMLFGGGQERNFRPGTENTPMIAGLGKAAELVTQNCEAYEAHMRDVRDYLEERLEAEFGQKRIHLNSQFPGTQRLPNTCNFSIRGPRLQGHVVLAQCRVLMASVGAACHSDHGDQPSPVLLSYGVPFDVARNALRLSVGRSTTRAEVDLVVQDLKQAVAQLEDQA
Kind of data set: alanine dehydrogenase-coupled detection of product alanine. As to conditions: 5 mM seleno-L-cystine reduced in situ by 50 mM DTT (10 mM Sec equivalent), 0.2 mM PLP, pH 8.5, 37 °C, under nitrogen; time course only. The class given is biochemical.

Data set [2] concerns the target T1, hSCL (human selenocysteine lyase). Put plainly: X-ray crystal structure. The format is binding. As to conditions: P2_12_12_1 crystal, 2.1 Å; pH 6.7; copurified cofactor; active site at homodimer interface.
Data set [3] deals with the molecule itself. Put plainly: crystal structure; hSCL with PLP, His-tag cleaved; two crystal forms: P2(1)2(1)2(1), 2.1 A, 100 mM HEPES pH 6.7, 10% PEG6000, one dimer per asymmetric unit; P1, 1.8 A, 50 mM HEPES pH 8.1, 200 mM ammonium nitrate, 25% PEG3350, soaked with 10 mM L-cysteine for 2 h, two dimers per asymmetric unit; crystals grown at 20 C.

In the case of `N[C@@H](C[SeH])C(=O)O` [Sec], in data set [1], the “alanine dehydrogenase-coupled detection of product alanine” value is reported as “The activity with Sec observed in the wild-type enzyme was not altered”. On to `Cc1ncc(COP(=O)(O)O)c(C=O)c1O` [PLP], for which the X-ray crystal structure result in data set [2] is given as “Human SCL homodimer in complex with the co-factor PLP”.

B1: human selenocysteine lyase (hSCL), residues 8-445 (enzyme, UniProt Q96I15 8-445, looked up)
chain: T1 sequence (Q96I15 8-445)
notes: human selenocysteine lyase (hSCL), residues 8-445, cDNA clone from the Mammalian Gene Collection (GenBank BC007891.2), cloned in pNIC-Bsa4; residues 120-132 are disordered; A few vector residues probably remain at the N-terminus after TEV cleavage (surmised; also called human SCL; Sec lyase; source: His-tag removed with TEV protease); not shown: His6, N-terminal, cleaved
One may read the stoichiometry N as the number of molecules, sites or subunits per partner or assembly. As for B1, the “stoichiometry N” value in data set [3] was 2.
